Test results taken from patent EP0576227A2, “2'-Deoxy-2',2'-difluoro(2,6,8-substituted) purine nucleosides having anti-viral and anti-cancer activity and intermediates” (ELI LILLY AND COMPANY, priority 1992, dated 1993).
≈ marks a conversion by molar mass, not a printed value.

Assays:
[1] = test system: human leukemia cells (CCRF-CEM cell line); assay: Growth inhibition of human leukemia cells (CCRF-CEM cytotoxicity screen); type: cell-based; conditions: concentration giving 50 percent growth inhibition; CCRF-CEM cell line
Description: In another aspect, the invention provides a method of treating susceptible neoplasms in mammals comprising administering to a mammal in need of such treatment a pharmaceutically effective amount of a compound of formula (I). […] The treatment contemplated by the present method includes both medical therapeutic and prophylactic treatment, as appropriate. The specific dosage level of the compound administered according to this invention will, of course, be determined by the circumstances surrounding the case, including, for example, the particular compound administered, the route of administration, and the condition being treated. The compounds are effectively administered orally, topically, or parenterally. […] The representative compounds of formula (I) employed in the present invention are cytotoxic as they inhibit the growth of rapidly dividing human leukemia cells (CCRF-CEM cell line). Table 1 below gives the results of testing several compounds representative of formula (I).

[2] = test system: HC1 human colon carcinoma; assay: HC1 human colon carcinoma xenograft in mice, tumor weight inhibition; type: in vivo, Nu/Nu CD-1 mice; conditions: Intra-Peritoneal 0.5 ml, Daily X 10
Description: The HC1 human colon carcinoma xenograft was obtained in 1987 from Drs. Peter and Janet Houghton, St. Jude Children's Hospital, Memphis, TN. The tumor is a moderately well-differentiated adenocarcinoma of the ascending colon [British Journal of Cancer, 37, p 213-223 (1987)]. The first passage tumor was stored in liquid nitrogen using standard techniques. The tumors were maintained in serial passage Nu/Nu CD-1 mice (Charles River Laboratories, Portage, MI.).
The study testing the efficacy of these compounds against HC1 human colon carcinoma was initiated by removing a tumor from passage animals and mincing it into 1 to 3 mm square fragments using sterile techniques. Tumor pieces were checked for sterility using both an Antibiotic Medium 1 and Brain Heart Infusion (Difco; Detroit, MI). Tumor pieces were implanted subcutaneously in the auxilary region of recipient mice by trocar. Drug therapy on the appropriate schedule was initiated 14 days after tumor implantation. Drugs were dissolved in Emulphor for all experiments. All animals were weighed at the beginning and end of drug treatment. Food and water were provided ad libitum. On day 14 after the initiation of therapy, two dimensional measurements (width and length) of all tumors were taken using electronic calipers interfaced to a computer. Tumor weights were calculated from these measurements using the following formula: Tumor Weight (mg) = Tumor Length (mm) X Tumor Width (mm)²/2
For all data, the tumor weight was rounded to the nearest tenth of a gram for analysis. No group is included in the analysis for therapeutic activity in which deaths attributable to drug toxicity exceeded 20 percent of the treated group. Compounds are considered active if more than 60 percent inhibition of tumor growth, as determined by tumor weight, is achieved at maximally tolerated doses.
In Table 2 which follows, Column 1 gives the example number of the compound tested; Column 2, the dose level; Column 3, the route administered; Column 4, the dosage schedule; Column 5, the percent inhibition of the tumor; and Column 6; the toxic deaths observed prior to completion of the study.

[3] = test system: Human Cytomegalovirus (HCMV) strain AD169; assay: Human Cytomegalovirus Test (plaque inhibition in WI-38 cells); type: cell-based; conditions: read-out: Percent Plaque Inhibition at Specified µg/ml conc.
Protocol: WI-38 cells (American Type Culture Collection; CCL-35) were seeded into 24-well plates in MEM media (GIBCO) supplemented with 10% fetal bovine serum and penicillin/streptomycin. The plates wre incbated at 37°C, in 5 percent carbon dioxide in a humidified incubator for 3 days. Human Cytomegalovirus (HCMV) strain AD169 (American Type Culture Collection) was added to each well (40 plaque forming unites in 100 µl of media) and the virus was allowed to adsorb to the cells for 2 hours at room temperature. The compound of Example 5 was dissolved in 100 percent dimethylsulfoxide at a concentration of 20 mgs/ml and diluted with media to yield final concentrations of 50, 25, 12.5, 6.25, 3.13, 1.6, 0.8, 0.4, 0.2, and 0.1 µg/ml in one set of experiments and 32, 10, 3.2, 1, and 0.32 µg/ml in another set of experiments. Each concentration was done in duplicate. In all experiments, Cytovene (DHPG) was used as a positive control.
The infected cells were incubated for 10 days at 37°C, 5 percent carbon dioxide, in an humidified incubator without changes of media. After incubation, the cells were fixed for at least 15 minutes with 10 percent formalin and rinsed with water. After rinsing, the cells were stained for at least 15 minutes with crystal violet and allowed to dry. HCMV induced plaques were counted with the aid of an iverted microscope. The number of viral plaques appearing in cells treated with each concentration of the Example 5 compound was compared to the number of viral plaques in cells left untreated ("no-drug control") and the percent inhibition of viral plaque formation was calculated. The concentration of the Example 5 compound required to inhibit viral plaque formation by 50 percent was determined using linear regression analysis.

[4] = test system: Hepatitis B Virus; assay: Hepatitis B Virus Test (HBV DNA in supernatant of Hep10A cells, PCR / Southern blot); type: cell-based, human Hepatitis B Virus (HBV); conditions: 240 h
Description: Plasmids were constructed using standard recombinant DNA techniques; see Sambrook, J., et al., Molecular Cloning: A Laboratory Manual, 2nd Edition (1989), Cold Spring Harbor Press, Cold Spring Harbor, NY. Plasmid pTHBV contains a head-to-tail dimer of the human Hepatitis B Virus (HBV) genome, subtype adw, clone into the EcoR I site of pUC9. […] and subcloned into the Sal I site of pTHBV after a two base fill-in reaction with the Klenow fragment of E. coli DNA polymerase I.
HepG2 cells (human hepatoblastoma, ATCC HB 8065) were routinely passaged in growth medium consisting of EARLE'S minimal essential media (Grand Island Biological Company (GIBCO) Bethesda Research Laboratories (BRL), Life Technologies, Inc., Gathersburg, MD.) supplemented with sodium pyruvate, 10 percent fetal bovine serum, 100 units/ml penicillin, and 100 µg/ml streptomycin. Hep10A cells were derived from HepG2 cells. Briefly, HepG2 cells were seeded into 60 mm culture dishes in growth medium, and when approximately 50 percent confluent, were transfected with pTHBVneo using the calcium phosphate precipitation method described by Graham, F.L. and Van der Eb in Virology, 52, p 456-467 (1973). After four hours of post-transfection, the cells were shocked with 10 percent dimethylsulfoxide and 20 percent glucose for 5 minutes, after which they were allowed to recover for 24 horus. The transfected cells were passaged and reseeded in the presence of growth medium containing 800 µg/ml geneticin. The cells were monitored for the appearance of geneticin resistant cells. A genecitin resistant cell line was established, and routinely passaged in growth medium containing 400 µg/ml geneticin. This cell line will be referred to as Hep10A.
Hep10A cells were seeded into 96-well microtiter plates at a density of approximately 50,000 cells per well, allowed to grow to confluence, and maintained at confluence for 2 to 4 days to allow Hepatitus B Virus derivative HBV DNA levels to stabilize; see Sells, M.A., et al., J. Virol., 62, p 2836-2844 (1987) and Korba, B.E., et al., Antiviral Res., 15, p 217-228 (1991). At this time, cells were treated with 2'-deoxy-2'-fluoroarabino-5-iodouridine (FIAU) and the compound of Example 5 for 10 days, with daily changes of media containing fresh drug. FIAU was used as a positive control. On day 10, culture supernatant samples were taken and stored at 4°C until needed. PCR analysis was performed on supernatant samples using appropriate primers to amplify a 477 base pair fragment from the "a" determinant of the surface antigen gene of HBV subtype adw. Following eletrophoresis through agarose gels, the DNA was transferred to nylon membranes (Optiblot™, IBI, New Haven, CT) by capillary action (Southern, 1975) using 1X saline sodium citrate (SSC) (1X SSC=0.15 M NaCl, 0.015 M sodium citrate). After baking in vacuo for 30 minutes, the blots were hybridized for 15 to 18 hours to 1x10⁶ cpm/ml of […] the method of random priming (Feinberg and Vogelstein, 1983). Hybridization was carried out at 42°C using 50 percent N,N-dimethylformamide, 6X saline sodium phosphate ethylenediamine tetraacetic acid (SSPE), 1.0 percent sodium dodyl sulfate (SDS), and 50 µg/ml salmon sperm DNA (1X SSPE=0.18 M NaCl; […] NaH₂PO₄, pH 7.4; 1 mmol ethylene diamine tetraacetic acid (EDTA)). The hybridized blots were washed as follows: twice in 2X SSC/0.1 percent SDS at room temperature for 1 hour, once in 0.1X SSC/0.1 percent SDS at room temperature for 30 minutes, and once in 0.1x SSC/0.1 percent supplemented with SDS at 65°C for 15 minutes. The filters were exposed to x-ray film and quantitated by densitometry.

[5] = read-out: Percent Inhibition at Specified µg/ml conc.

## Nc1nc(S)c2ncn([C@@H]3O[C@H](CO)[C@@H](O)C3(F)F)c2n1 [(h), 2-deoxy-2,2-difluoro-D-ribofuranosyl-1-β-(2-amino-6-thiopurine)]
[1]
  IC50: 4.3 mg/L (≈ 13.5 µM)

## Nc1nc(I)c2ncn([C@@H]3O[C@H](CO)[C@@H](O)C3(F)F)c2n1 [Example 6, 2-deoxy-2,2-difluoro-D-ribofuranosyl-1-β-(2-amino-6-iodopurine)]
[1]
  IC50: 0.093 mg/L (≈ 0.225 µM)

## Cc1nc(N)nc2c1ncn2[C@@H]1O[C@H](CO)[C@@H](O)C1(F)F [Example 13, 2-deoxy-2,2-difluoro-D-ribofuranosyl-1-β-(2-amino-6-methylpurine)]
[1]
  IC50: 2.6 mg/L (≈ 8.63 µM)

## CN(C)c1nc(N)nc2c1ncn2[C@@H]1O[C@H](CO)[C@@H](O)C1(F)F [Example 4, 2-deoxy-2,2-difluoro-D-ribofuranosyl-1-β-(2-amino-6-dimethylaminopurine)]
[1]
  IC50: 4.6 mg/L (≈ 13.9 µM)

## Nc1nc(Cl)c2ncn([C@@H]3O[C@H](CO)[C@@H](O)C3(F)F)c2n1 [Example 1, 2-deoxy-2,2-difluoro-D-ribofuranosyl-1-β-(2-amino-6-chloropurine)]
[1]
  IC50: 0.007 mg/L (≈ 0.0218 µM)

## CCOc1nc(N)nc2c1ncn2[C@@H]1O[C@H](CO)[C@@H](O)C1(F)F [Example 3, 2-deoxy-2,2-difluoro-D-ribofuranosyl-1-β-(2-amino-6-ethoxypurine)]
[1]
  IC50: 0.2 mg/L (≈ 0.604 µM)
[2]; 25 mg/kg
  Percent Inhibition of Tumor: 98%
  Toxic Deaths: 0/10
[2]; 50 mg/kg
  Percent Inhibition of Tumor: 97%
  Toxic Deaths: 0/10
[2]; 100 mg/kg
  Percent Inhibition of Tumor: 98%
  Toxic Deaths: 0/10

## OC[C@H]1O[C@@H](n2cnc3cncnc32)C(F)(F)[C@@H]1O [Example 11, 2-deoxy-2,2-difluoro-D-ribofuranosyl-1-β-purine]
[1]
  IC50: 1.3 mg/L (≈ 4.78 µM)

## Nc1nc(F)nc2c1ncn2[C@@H]1O[C@H](CO)[C@@H](O)C1(F)F [Example 10, 2-deoxy-2,2-difluoro-D-ribofuranosyl-1-β-(2-fluoroadenosine)]
[1]
  IC50: 0.094 mg/L (≈ 0.308 µM)

## COc1nc(N)nc2c1ncn2[C@@H]1O[C@H](CO)[C@@H](O)C1(F)F [Example 2, 2-deoxy-2,2-difluoro-D-ribofuranosyl-1-β-(2-amino-6-methoxypurine)]
[1]
  IC50: 0.037 mg/L (≈ 0.117 µM)

## Nc1nc2c(ncn2COC(CO)CO)c(=O)[nH]1 [Cytovene]
[3]; Human betaherpesvirus 5, AD169, 240 h, 0.2 µg/ml, WI-38 cells, 10 days
  inhibition at 0.2 µg/mL: 31%
[3]; Human betaherpesvirus 5, AD169, 240 h, 0.4 µg/ml, WI-38 cells, 10 days
  inhibition at 0.4 µg/mL: 31%
[3]; Human betaherpesvirus 5, AD169, 240 h, 0.8 µg/ml, WI-38 cells, 10 days
  inhibition at 0.8 µg/mL: 40%
[3]; Human betaherpesvirus 5, AD169, 240 h, 1.6 µg/ml, WI-38 cells, 10 days
  inhibition at 1.6 µg/mL: 65.5%
[3]; Human betaherpesvirus 5, AD169, 240 h, 6.25 µg/ml, WI-38 cells, 10 days
  inhibition at 6.25 µg/mL: 98%
[3]; Human betaherpesvirus 5, AD169, 240 h, 12.5 µg/ml, WI-38 cells, 10 days
  inhibition at 12.5 µg/mL: 100%
[3]; Human betaherpesvirus 5, AD169, 240 h, 25 µg/ml, WI-38 cells, 10 days
  inhibition at 25 µg/mL: 100%
[3]; Human betaherpesvirus 5, AD169, 240 h, 50 µg/ml, WI-38 cells, 10 days
  inhibition at 50 µg/mL: 100%
[3]; Human betaherpesvirus 5, AD169, WI-38, 240 h
  inhibition at 3.12 µg/mL: 91%

## Nc1nc(O)nc2c1ncn2[C@@H]1O[C@H](CO)[C@@H](O)C1(F)F [Example 9, 2-deoxy-2,2-difluoro-D-ribofuranosyl-1-β-(2-hydroxyadenosine)]
[1]
  IC50: 0.7 mg/L (≈ 2.31 µM)

## N#Cc1nc(N)nc2c1ncn2[C@@H]1O[C@H](CO)[C@@H](O)C1(F)F [Example 7, 2-deoxy-2,2-difluoro-D-ribofuranosyl-1-β-(2-amino-6-cyanopurine)]
[1]
  IC50: 2.5 mg/L (≈ 8.01 µM)

## O=c1[nH]c(=O)n([C@@H]2O[C@H](CO)[C@@H](O)[C@@H]2F)cc1I [FIAU, 2'-deoxy-2'-fluoroarabino-5-iodouridine, reference compound]
[4]; [5]
  inhibition at 0.1 µg/mL: 10.8%
  inhibition at 1 µg/mL: 35.5%
  inhibition at 10 µg/mL: 65.3%
  inhibition at 100 µg/mL: 81.7%
[4]; read-out: concentration required to inhibit HBV DNA replication by 50 percent
  IC50: 5.4 mg/L (≈ 14.5 µM)
